Reference: patent US20080153792A1, “Drug Identification and Treatment Method” (priority 2006, published 2008)

How the values were obtained:
[1] = system: 8 week old db/db diabetic mice; assay: hyperinsulinemic-euglycemic clamp in db/db mice; type: in vivo, mouse; conditions: oral gavage 14 days; insulin 10 mU/kg/min
Description: Glucose lowering in 8 week old db/db diabetic mice. The hyperinsulinemic-euglycemic clamp protocol was conducted to measure insulin sensitivity in vivo. In this procedure, insulin was administered to raise the insulin concentration while glucose was infused to maintain euglycemia or a fixed, normal blood glucose level (about 180 mg/dL). […] The objective of this protocol was to investigate characterize the capacity of 17α-ethynylandrost-5-ene-3β,7β,17β-triol and androst-5-ene-3β,7β,16α,17β-tetrol to ameliorate systemic insulin resistance and improve whole body glucose disposal in the hyperinsulinemic-euglycemic clamp model. The degree of skeletal muscle and hepatic insulin sensitivity and tissue specific glucose uptake were also assessed. The animals were dosed daily by oral gavage for 14 days. On Day 10 of treatment catheters were implanted in the carotid artery and jugular vein. On the day of the clamp (day 14) the compound was administered at 7:30 am.
Body weight and glucose concentration were assessed on day 0, 7 and day 14 of treatment. On day 14 a euglycemic hyperinsulinemic clamp was performed. […] Plasma ^14C 2-deoxyglucose was assessed at 122, 125, 130, 135, 145 min. […]
Analysis was conducted as follows. Plasma samples were deproteinized with Ba(OH)2 (0.3 N) and ZnSO4 (0.3 N), dried and radioactivity was assessed on scintillation counter (Packard TRICARB 2900 TR, Meriden, Conn.). […] One supernatant was directly counted to determine radioactivity from both [14C] […] A second aliquot was treated with Ba(OH)2 and ZnSO4 to remove ^14C DGP and any tracer incorporated into glycogen and then counted to determine radioactivity from free [^14C]DG(2). [^14C]DGP was calculated as the difference between the two aliquots. […] Rg, an index of tissue specific glucose uptake was calculated as previously described (E. W. Kraegen et al., Am. J. Physiol., 248:E353-E362, 1985). Whole body glucose turnover was calculated as the ratio of the ^3H glucose infusion rate (dpm/kg/min) and arterial plasma glucose specific activity (dpm/mg). […]

[2] = system: human peripheral blood mononuclear cells (PBMC); assay: human mixed lymphocyte reaction (MLR); type: cell-based; conditions: either 300 nM or 30 nM; 6 days; p>0.05
Description: Human mixed lymphocyte reaction (MLR). The capacity of 3β,16α-dihydroxy-17-oxoandrostane, 3β,17β-dihydroxy-16-oxoandrostane, 17α-ethynylandrost-5-ene-3β,7β,17β-triol, and 17β-aminoandrost-5-ene-3β-ol to affect antigen specific stimulation in which human T lymphocytes respond to a specific foreign antigen (major histocompatibility complex).
Blood samples were obtained from 3 (2 males, […]) fasting, healthy human volunteers of 23-31 years old. […] The subjects were bled between […] to limit possible fluctuations in the circulating levels of hormones or cytokines that could have influenced the in vitro responses of their lymphocytes. Peripheral blood mononuclear cells (PBMC) were isolated by centrifugation on Ficoll-Hypaque (density 1.077, Biochrom AG, Berlin, Germany) gradients and resuspended in culture medium (RPMI 1640 supplemented with 2 mM L-glutamine, penicillin (100 U/mL) and streptomycin ([…]) (Invitrogen s.rl., Milan, Italy). Autologous (responder) inactivated plasma was used at 10%. Five hundred thousand responder PBMC (PBMCr) and 500,000 allogeneic irradiated (30 Gy) stimulator PBMC (PBMCs) were mixed at a ratio of 1:1 in 200 μL medium and cultured for 6 days in flat bottom 96 well plates (Nunc, Roskilde, Denmark) at a concentration of 300 nM or 30 nM for each of the 4 compounds. The compounds were dissolved in ethanol and then diluted to the desired concentration with culture medium leading to a final solution containing 0.01% of ethanol. This vehicle was used as control. Controls also included PBMCr and PBMCs cultured separately. During the last 8 hours of the culture period the PBMC were pulsed with 1 μCi/well [^3H] thymidine (Amersham, Milan, Italy). The cells were then harvested and radioactivity incorporation measured with a beta cell counter. The mean cpm of quadruplicate wells was calculated. Proliferation of T cells was expressed as a stimulation index: SI=cpm (PMBCs xPBMCr)/cpm (PBMCr)+cpm (PBMCs). Statistical analysis was performed using the Student's t test. The cpm obtained from quadruplicate of each test compound were compared to proliferative responses obtained in control PBMCr and PBMCs cultured in the presence of the vehicle. Differences were considered significant at p<0.05.

DIO mice = assay: diet induced obesity (DIO) mouse, OGTT; type: in vivo; conditions: 20, 40 or 80 mg/kg twice a day oral gavage up to 28 days
Source text: Diet induced obesity (DIO) mouse hyperglycemia treatment. The effect of a drug to enhance peripheral sensitivity to insulin can be studied in a mouse model in which a state of insulin resistance is attained by feeding the animals a fat-enriched diet (60% of total caloric intake) for at least 6 weeks. This model has been described, e.g., J. N. Thupari et al., Proc. Natl. Acad. Sci. USA, 99(14):9498-9502, 2002, H. Xu et al., J. Clin. Invest., 112:1821-1830, 2003, H. Takahashi et al., J. Biol. Chem., 278(47):46654-46660, 2003.
For these studies, animals of approximately 4 weeks of age were divided into groups of 10 animals each and then treated with a vehicle control (no drug) or 17α-ethynylandrost-5-ene-3β,7β,17β-triol by oral gavage. The 17α-ethynylandrost-5-ene-3β,7β,17β-triol was administered at 20 mg/kg, 40 mg/kg or 80 mg/kg twice a day for up to 28 days. At day 14 and day 28 during the dosing period an OGTT was performed.

For `C#C[C@]1(O)CC[C@H]2[C@@H]3[C@@H](O)C=C4C[C@@H](O)CC[C@]4(C)[C@H]3CC[C@@]21C` [17α-ethynylandrost-5-ene-3β,7β,17β-triol], the “glucose infusion rate compared to the vehicle control” value [1] was “increased the glucose infusion rate”, the “immune suppression in the MLR” value [2] was “not appreciably immune suppressive” and the “glucose intolerance (OGTT glycemic excursion) compared to vehicle” value (DIO mice) was “notably reduced glucose intolerance”.
